The text below walks through data of ChEMBL document CHEMBL3217594, “Structureactivity relationships of methyl-lysine reader antagonists” (Medchemcomm, 2012).

In assay [1] the target is T1, Lethal(3)malignant brain tumor-like protein 4 (Homo sapiens, UniProt Q8NA19).
T1 sequence (Q8NA19 whole entry): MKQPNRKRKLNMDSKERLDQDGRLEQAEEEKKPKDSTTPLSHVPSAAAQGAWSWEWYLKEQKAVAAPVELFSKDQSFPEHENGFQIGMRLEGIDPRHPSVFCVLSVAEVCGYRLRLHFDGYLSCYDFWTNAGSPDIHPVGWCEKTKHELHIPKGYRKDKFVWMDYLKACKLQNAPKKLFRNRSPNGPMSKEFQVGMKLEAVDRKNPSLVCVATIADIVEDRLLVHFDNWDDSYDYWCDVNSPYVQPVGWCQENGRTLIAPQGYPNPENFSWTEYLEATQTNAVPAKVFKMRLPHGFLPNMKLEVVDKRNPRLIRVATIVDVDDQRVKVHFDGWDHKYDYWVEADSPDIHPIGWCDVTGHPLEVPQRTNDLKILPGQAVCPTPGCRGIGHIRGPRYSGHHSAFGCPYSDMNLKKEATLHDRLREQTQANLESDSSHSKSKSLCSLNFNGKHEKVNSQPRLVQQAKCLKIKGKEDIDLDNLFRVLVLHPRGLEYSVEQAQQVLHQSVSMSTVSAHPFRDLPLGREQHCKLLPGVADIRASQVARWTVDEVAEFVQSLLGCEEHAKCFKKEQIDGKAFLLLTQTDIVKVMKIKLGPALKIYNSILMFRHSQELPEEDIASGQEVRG
As to the kind of experiment: Antagonist activity at L3MBTL4 (unknown origin) assessed as inhibition of L3MBTL4/biotinylated H2AK36Me1 peptide interaction after 30 mins by AlphaScreen assay.

Assay [2] has as its target T2, Scm-like with four MBT domains protein 1 (Homo sapiens, UniProt Q9UHJ3).
T2 sequence (Q9UHJ3 whole entry): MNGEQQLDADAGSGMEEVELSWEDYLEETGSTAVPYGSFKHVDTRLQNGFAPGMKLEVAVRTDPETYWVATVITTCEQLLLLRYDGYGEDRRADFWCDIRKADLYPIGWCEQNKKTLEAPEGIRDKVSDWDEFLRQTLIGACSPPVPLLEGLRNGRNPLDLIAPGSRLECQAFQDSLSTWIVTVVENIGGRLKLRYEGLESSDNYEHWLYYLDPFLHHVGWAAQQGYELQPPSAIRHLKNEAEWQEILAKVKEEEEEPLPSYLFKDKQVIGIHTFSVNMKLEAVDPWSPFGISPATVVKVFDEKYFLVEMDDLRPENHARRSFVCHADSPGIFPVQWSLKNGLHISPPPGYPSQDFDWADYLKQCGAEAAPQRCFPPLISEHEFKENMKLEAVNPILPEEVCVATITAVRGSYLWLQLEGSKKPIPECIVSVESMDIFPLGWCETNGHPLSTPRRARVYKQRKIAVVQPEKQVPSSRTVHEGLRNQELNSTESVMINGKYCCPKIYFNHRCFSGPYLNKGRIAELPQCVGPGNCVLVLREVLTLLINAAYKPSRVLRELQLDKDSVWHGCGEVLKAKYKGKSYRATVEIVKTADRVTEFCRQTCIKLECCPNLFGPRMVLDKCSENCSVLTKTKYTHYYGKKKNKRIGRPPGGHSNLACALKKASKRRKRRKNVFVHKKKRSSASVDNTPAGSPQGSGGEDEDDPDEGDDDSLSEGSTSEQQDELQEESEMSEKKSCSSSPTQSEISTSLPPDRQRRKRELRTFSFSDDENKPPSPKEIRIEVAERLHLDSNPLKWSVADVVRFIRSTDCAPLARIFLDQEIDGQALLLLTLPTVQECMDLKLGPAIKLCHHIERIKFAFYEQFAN
Description: Antagonist activity at SFMBT1 (unknown origin) assessed as inhibition of SFMBT1/biotinylated H3K9Me1 peptide interaction after 30 mins by AlphaScreen assay.

Assay [3] deals with T3, MBT domain-containing protein 1 (Homo sapiens, UniProt Q05BQ5). Description: Antagonist activity at MBTD1 (unknown origin) assessed as inhibition of MBTD1/biotinylated H4K20Me1 peptide interaction after 30 mins by AlphaScreen assay.
The target of assay [4] is T3, MBT domain-containing protein 1. As to the kind of experiment: Antagonist activity at MBTD1 (unknown origin) assessed as inhibition of MBTD1/biotinylated H4K20Me1 peptide interaction at 30 uM after 30 mins by AlphaScreen assay.
The target of assay [5] is T4, Scm-like with four MBT domains protein 1 (Homo sapiens) (UniProt Q9UHJ3).
T4 sequence (whole entry): T2 sequence (Q9UHJ3 whole entry)
As to the kind of experiment: Antagonist activity at SFMBT1 (unknown origin) assessed as inhibition of SFMBT1/biotinylated H3K9Me1 peptide interaction at 30 uM after 30 mins by AlphaScreen assay.

The target of assay [6] is T5, Chromobox protein homolog 7 (Homo sapiens) (UniProt O95931).
T5 sequence (whole entry): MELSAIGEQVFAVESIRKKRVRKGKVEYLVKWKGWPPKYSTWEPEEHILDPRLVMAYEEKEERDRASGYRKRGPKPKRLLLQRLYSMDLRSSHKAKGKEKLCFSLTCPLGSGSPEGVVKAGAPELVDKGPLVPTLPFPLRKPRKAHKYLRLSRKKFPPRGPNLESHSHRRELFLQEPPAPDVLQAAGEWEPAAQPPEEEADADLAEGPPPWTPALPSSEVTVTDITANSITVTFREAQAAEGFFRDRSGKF
Description: Antagonist activity at Flag-tagged CBX7 (unknown origin) assessed as inhibition of CBX7/biotinylated H3K9Me3 peptide interaction at 30 uM after 30 mins by AlphaScreen assay.

Assay [7] addresses T6, Lethal(3)malignant brain tumor-like protein 3 (Homo sapiens, UniProt Q96JM7).
T6 sequence (Q96JM7 whole entry): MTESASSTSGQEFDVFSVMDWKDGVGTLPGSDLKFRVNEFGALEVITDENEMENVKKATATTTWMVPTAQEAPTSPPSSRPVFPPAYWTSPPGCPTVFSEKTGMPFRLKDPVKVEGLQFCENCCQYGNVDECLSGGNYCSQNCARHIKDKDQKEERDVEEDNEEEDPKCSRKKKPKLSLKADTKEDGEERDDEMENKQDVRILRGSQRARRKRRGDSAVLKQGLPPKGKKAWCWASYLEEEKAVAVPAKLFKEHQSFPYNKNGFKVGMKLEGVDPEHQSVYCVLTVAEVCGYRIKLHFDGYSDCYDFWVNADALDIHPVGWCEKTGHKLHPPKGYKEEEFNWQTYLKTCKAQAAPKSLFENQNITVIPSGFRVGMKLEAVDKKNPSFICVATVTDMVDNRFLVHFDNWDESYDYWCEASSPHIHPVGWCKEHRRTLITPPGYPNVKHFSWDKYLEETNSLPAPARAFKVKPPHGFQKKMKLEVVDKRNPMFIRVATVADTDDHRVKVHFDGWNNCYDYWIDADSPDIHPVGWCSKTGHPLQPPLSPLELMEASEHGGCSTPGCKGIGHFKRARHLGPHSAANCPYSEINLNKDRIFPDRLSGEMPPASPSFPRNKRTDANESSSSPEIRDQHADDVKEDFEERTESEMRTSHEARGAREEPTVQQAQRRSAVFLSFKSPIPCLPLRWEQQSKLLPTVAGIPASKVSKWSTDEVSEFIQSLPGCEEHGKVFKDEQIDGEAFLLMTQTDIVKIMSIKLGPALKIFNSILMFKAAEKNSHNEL
Description: Antagonist activity at His-tagged L3MBTL3 (unknown origin) assessed as inhibition of L3MBTL3/biotinylated H4K20Me2 peptide interaction after 30 mins by AlphaScreen assay.

Assay [8] addresses T7, Chromobox protein homolog 7 (Homo sapiens, UniProt O95931).
T7 sequence (O95931 whole entry): T5 sequence (whole entry)
As to the kind of experiment: Antagonist activity at Flag-tagged CBX7 (unknown origin) assessed as inhibition of CBX7/biotinylated H3K9Me3 peptide interaction after 30 mins by AlphaScreen assay.

Assay [9] deals with T8, Lethal(3)malignant brain tumor-like protein 4 (Homo sapiens) (UniProt Q8NA19).
T8 sequence (whole entry): T1 sequence (Q8NA19 whole entry)
As to the kind of experiment: Antagonist activity at L3MBTL4 (unknown origin) assessed as inhibition of L3MBTL4/biotinylated H2AK36Me1 peptide interaction at 30 uM after 30 mins by AlphaScreen assay.

Calls of active or inactive are those of the source. No cut-off for these calls is given here.

T3 sequence (Q05BQ5 whole entry, the tested form may be a part): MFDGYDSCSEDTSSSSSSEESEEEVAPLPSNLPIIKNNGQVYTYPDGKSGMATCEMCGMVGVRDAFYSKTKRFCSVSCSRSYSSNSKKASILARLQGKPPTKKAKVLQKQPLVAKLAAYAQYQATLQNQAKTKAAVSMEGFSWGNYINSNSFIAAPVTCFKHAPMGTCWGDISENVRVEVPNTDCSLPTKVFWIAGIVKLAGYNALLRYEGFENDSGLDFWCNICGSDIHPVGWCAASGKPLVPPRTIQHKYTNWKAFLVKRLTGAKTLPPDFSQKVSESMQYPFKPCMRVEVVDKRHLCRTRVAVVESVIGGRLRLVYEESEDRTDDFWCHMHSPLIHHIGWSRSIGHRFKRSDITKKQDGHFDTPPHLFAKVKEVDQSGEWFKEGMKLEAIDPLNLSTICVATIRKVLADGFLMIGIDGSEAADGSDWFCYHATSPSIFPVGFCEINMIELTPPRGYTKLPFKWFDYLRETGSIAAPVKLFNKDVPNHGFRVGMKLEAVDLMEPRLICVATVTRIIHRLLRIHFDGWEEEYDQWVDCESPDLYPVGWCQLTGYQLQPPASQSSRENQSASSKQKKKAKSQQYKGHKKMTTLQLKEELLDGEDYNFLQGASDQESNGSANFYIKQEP

With `CNC(=O)c1cccc(C(=O)N2CCC(N3CCCC3)CC2)c1`, the IC50 is over 30 µM in assay [1]; over 30 µM in assay [2]; over 30 µM in assay [3]; 6.4 µM in assay [7]; over 30 µM in assay [8]. Further, the inhibition is 21% in [4] and 32% in assay [9]. Besides, the inhibition result in [5] and in assay [6] was “inactive” throughout.

For the compound `O=C(c1ccccc1Br)N1CCC(N2CCCC2)CC1`, the IC50 is over 30 µM in assay [1]; over 30 µM in assay [2]; over 30 µM in [3]; 6.8 µM in assay [7]; over 30 µM in assay [8]. The inhibition in assay [4] stood at 31%; in assay [6] it was 17%; in [9], 29%. Moreover, in [5], the inhibition entry was “inactive”.

Turning to `O=C(c1ccc(Br)cc1)N1CCC(N2CCCC2)CC1`, the IC50 in assay [1] is over 30 µM; in assay [2], over 30 µM; in [3], over 30 µM; in [7], 4.1 µM; in assay [8] it was over 30 µM. The inhibition in assay [4] turned out to be 24%; in assay [9], 30%. Moreover, the inhibition entry in assay [5] and in assay [6] was “inactive” in each case.

Turning to `c1ccc(C(c2ccccc2)N2CCC(N3CCCC3)CC2)cc1`, the IC50 in assay [1] is over 30 µM; in assay [2], over 30 µM; in assay [3], over 30 µM; in assay [7], 2.4 µM; in assay [8], over 30 µM. Besides, the inhibition in assay [4] came out at 36%; in assay [9], 17%. For the same compound, the inhibition result in assay [5] and in assay [6] was “inactive” in each case.

Turning to `O=C(c1cccc(Br)c1)N1CCCC(N2CCCC2)CC1` (stereo not given), the IC50 is over 30 µM in assay [1]; over 30 µM in [2]; 15.2 µM in assay [3]; 6.7 µM in [7]; over 30 µM in assay [8]. In addition, the inhibition entry in assay [5] is “inactive”. Also, the inhibition in assay [6] amounted to 13%; in [9], 28%.

On to `O=C(c1cccc(Br)c1)N1CCC(N2CC=CC2)CC1`, for which the IC50 in assay [1] was over 30 µM; in [2] it was over 30 µM; in [3] it was over 30 µM; in [7], 8.7 µM; in assay [8], over 30 µM. Moreover, the results for the inhibition in [4], in [6] and in assay [9] were 24%, 18% and 28%, respectively. For the same compound, in [5], the inhibition result was “inactive”.

As for `O=C(c1cccc(Br)c1)N1CC2CCC(C1)C2N1CCCC1` (stereo not given), the IC50 is over 30 µM in [1]; over 30 µM in [2]; over 30 µM in assay [3]; 3.6 µM in assay [7]; over 30 µM in assay [8]. The inhibition in [4] came to 31%; in assay [9], 16%. Besides, the inhibition entry in assay [5] and in assay [6] was “inactive” throughout.

Consider `O=C(c1ccccc1)N1CCC(N2CCCC2)CC1`, for which the half-maximal inhibitory concentration (IC50) is over 30 µM in [1]; over 30 µM in assay [2]; over 30 µM in [3]; 6.2 µM in assay [7]; over 30 µM in assay [8]. Moreover, the figures for the inhibition in assay [4] and in assay [9] were 22% and 40%, respectively. Further, the inhibition entry in assay [5] and in assay [6] was “inactive” each time.

`O=C(c1cncc(Br)c1)N1CCC(N2CCCC2)CC1`: the IC50 in assay [1] was over 30 µM; in assay [2], over 30 µM; in assay [3], over 30 µM; in assay [7] it was 4.8 µM; in [8], over 30 µM. Further, the inhibition stood at 23% in [4], 9% in assay [6] and 41% in assay [9]. Further, the inhibition entry in [5] is “inactive”.
